Test results taken from patent publication US10183944B2 (Asana Biosciences, LLC, priority 2011, dated 2019).
Counter-ions that a name gives are not always drawn.

Tests used:
[1] = target: Syk (356-635 amino acids) catalytic domain (Homo sapiens (Human), UniProt P43405); experiment: Inhibition of enzymatic Syk kinase activity (radiometric); type: biochemical; details: read-out: IC50 Syk
How it was run: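 Human Syk (356-635) kinase domain (0.035–7.5 ng/reaction) preincubated with compound 30 minutes at room temperature, then reacted with pG4T substrate, 100 μM ATP (stock) and γ-32P-ATP for 10 minutes at 30° C. Reaction stopped with HCl/ATP, spotted on P81 paper, washed and counted by scintillation. Percent inhibition versus no-compound counts.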

JAK2 = JAK2 (Homo sapiens (Human), UniProt O60674); experiment: Inhibition of enzymatic JAK2 kinase activity (TR-FRET); type: biochemical; details: read-out: IC50 JAK
JAK2, sequence (O60674 808-1132): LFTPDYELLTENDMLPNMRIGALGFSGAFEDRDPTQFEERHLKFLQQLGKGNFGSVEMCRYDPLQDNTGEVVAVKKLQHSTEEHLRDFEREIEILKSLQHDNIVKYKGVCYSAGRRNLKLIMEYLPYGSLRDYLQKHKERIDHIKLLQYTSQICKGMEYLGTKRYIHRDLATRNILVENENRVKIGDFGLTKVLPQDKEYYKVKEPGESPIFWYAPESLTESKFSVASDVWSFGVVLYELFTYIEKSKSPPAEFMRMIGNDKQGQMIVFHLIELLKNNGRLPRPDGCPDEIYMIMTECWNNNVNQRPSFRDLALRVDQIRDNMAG
How it was run: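 Enzyme preincubated with compound 30 min at RT, then Ulight-poly-GT substrate and ATP added for 60 min at RT. EDTA stop, Eu-antiphosphotyrosine antibody; TR-FRET ratio 665/615 nm (ex 340 nm), blank-corrected; % inhibition versus positive control.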

Structure (SMILES) | IC50 [1] | IC50 (JAK2)
O=c1[nH]ncc2nc(N3CCCCCC3)nc(Nc3ccc(N4CCCC(CO)C4)cc3)c12 (stereo not shown) [Example 285, 2-(azepan-1-yl)-4-((4-(3-(hydroxymethyl)piperidin-1-yl)phenyl)amino) pyrimido[4,5-d]pyridazin-5(6H)-one] | < 50 nM | < 50 nM
O=C(O)c1ccc(-c2nc(Nc3ccc(CN4CCNCC4)cc3)c3c(=O)[nH]ncc3n2)cc1 [Example 27, 4-(5-oxo-4-(4-(piperazin-1-ylmethyl)phenylamino)-5,6-dihydropyrimido[4,5-d]pyridazin-2-yl)benzoic acid hydrochloride] | > 100 nM | > 100 nM
O=c1[nH]ncc2nc(-c3ccccc3)nc(Nc3ccc(CN4CCOCC4)cc3)c12 [Example 4, 4-(4-(morpholinomethyl)phenylamino)-2-phenylpyrimido[4,5-d]pyridazin-5(6H)-one] | < 100 nM | < 50 nM
O=c1[nH]ncc2nc(N3CCNCC3)nc(Nc3ccc(CN4CCNCC4)cc3)c12 [Example 32, 2-(piperazin-1-yl)-4-(4-(piperazin-1-ylmethyl)phenylamino)pyrimido[4,5-d]pyridazin-5(6H)-one dihydrochloride] | < 100 nM | > 100 nM
CN1CCN(c2ccc(Nc3nc(N4CCC(CC#N)CC4)nc4cn[nH]c(=O)c34)cn2)CC1 [Example 243, 2-(1-(4-((6-(4-methylpiperazin-1-yl)pyridin-3-yl)amino)-5-oxo-5,6-dihydropyrimido[4,5-d]pyridazin-2-yl)piperidin-4-yl)acetonitrile] | < 50 nM | < 50 nM
O=c1[nH]ncc2nc(N3CCCCCC3)nc(Nc3ccc(N4CCC(CO)CC4)cc3)c12 [Example 202, 2-(azepan-1-yl)-4-((4-(4-(hydroxymethyl)piperidin-1-yl)phenyl)amino) pyrimido[4,5-d]pyridazin-5(6H)-one] | < 50 nM | < 10 nM
N#CCC1CCN(c2nc(Nc3ccc(OCCO)cc3)c3c(=O)[nH]ncc3n2)CC1 [Example 293, 2-(1-(4-((4-(2-hydroxyethoxy)phenyl)amino)-5-oxo-5,6-dihydropyrimido[4,5-d]pyridazin-2-yl)piperidin-4-yl) acetonitrile] | < 100 nM | < 50 nM
O=c1[nH]ncc2nc(-c3ccccc3)nc(Nc3ccc(OCCN4CCNCC4)cc3)c12 [Example 152, 2-phenyl-4-((4-(2-(piperazin-1-yl)ethoxy)phenyl)amino)pyrimido[4,5-d]pyridazin-5(6H)-one] | < 50 nM | > 100 nM
CCN1CCN(C(=O)COc2ccc(Nc3nc(N4CCCCCC4)nc4cn[nH]c(=O)c34)cc2)CC1 [Example 269, 2-(azepan-1-yl)-4-((4-(2-(4-ethylpiperazin-1-yl)-2-oxoethoxy)phenyl)amino)pyrimido[4,5-d]pyridazin-5(6H)-one] | < 50 nM | < 50 nM
N#CCC(=O)N1CCN(c2ccc(Nc3nc(N4CCC(CC#N)CC4)nc4cn[nH]c(=O)c34)cc2)CC1 [Example 240, 3-(4-(4-((2-(4-(cyanomethyl)piperidin-1-yl)-5-oxo-5,6-dihydropyrimido[4,5-d]pyridazin-4-yl)amino)phenyl)piperazin-1-yl)-3-oxopropanenitrile] | < 50 nM | < 10 nM
N#CC1CCN(c2nc(Nc3ccc(CN4CCNCC4)cc3)c3c(=O)[nH]ncc3n2)CC1 [Example 56, 1-(5-oxo-4-((4-(piperazin-1-ylmethyl)phenyl)amino)-5,6-dihydropyrimido[4,5-d]pyridazin-2-yl)piperidine-4-carbonitrile hydrochloride] | > 100 nM | < 50 nM
CN(C)c1nc(Nc2ccc(CN3CCNCC3)cc2)c2c(=O)[nH]ncc2n1 [Example 49, 2-(dimethylamino)-4-((4-(piperazin-1-ylmethyl)phenyl)amino)pyrimido[4,5-d]pyridazin-5(6H)-one hydrochloride] | < 100 nM | < 100 nM
CC(C)(C(=O)O)C1CCN(c2ccc(Nc3nc(N4CCCCCC4)nc4cn[nH]c(=O)c34)cc2)CC1 [Example 142, 2-(1-(4-((2-(azepan-1-yl)-5-oxo-5,6-dihydropyrimido[4,5-d]pyridazin-4-yl)amino)phenyl)piperidin-4-yl)-2-methylpropanoic acid] | < 50 nM | < 10 nM
O=C(O)C1CC12CCN(c1ccc(Nc3nc(-c4ccccc4)nc4cn[nH]c(=O)c34)cc1)CC2 (stereo not shown) [Example 22, sodium 6-(4-(5-oxo-2-phenyl-5,6-dihydropyrimido[4,5-d]pyridazin-4-ylamino)phenyl)-6-azaspiro[2.5]octane-1-carboxylate] | < 100 nM | < 50 nM
COc1ccc(-c2nc(Nc3ccc(CN4CCNCC4)cc3)c3c(=O)[nH]ncc3n2)cc1 [Example 41, 2-(4-methoxyphenyl)-4-(4-(piperazin-1-ylmethyl)phenylamino)pyrimido[4,5-d]pyridazin-5(6H)-one hydrochloride] | < 100 nM | > 100 nM
COc1ccccc1-c1nc(Nc2ccc(CN3CCNCC3)cc2)c2c(=O)[nH]ncc2n1 [Example 36, 2-(2-methoxyphenyl)-4-(4-(piperazin-1-ylmethyl)phenylamino)pyrimido[4,5-d]pyridazin-5(6H)-one hydrochloride] | > 100 nM | < 100 nM
CS(=O)(=O)c1ccc(Nc2nc(N3CCCCCC3)nc3cn[nH]c(=O)c23)cc1 [Example 334, 2-(azepan-1-yl)-4-((4-(methylsulfonyl)phenyl)amino)pyrimido[4,5-d]pyridazin-5(6H)-one] | < 50 nM | < 10 nM
O=c1[nH]ncc2nc(-c3ccc(Cl)cc3)nc(Nc3ccc(CN4CCNCC4)cc3)c12 [Example 40, 2-(4-chlorophenyl)-4-(4-(piperazin-1-ylmethyl)phenylamino)pyrimido[4,5-d]pyridazin-5(6H)-one hydrochloride] | < 50 nM | > 100 nM
N#CCC1CCN(c2ccc(Nc3nc(-c4ccccc4)nc4cn[nH]c(=O)c34)cn2)CC1 [Example 101, 2-(1-(5-((5-oxo-2-phenyl-5,6-dihydropyrimido[4,5-d]pyridazin-4-yl)amino)pyridin-2-yl)piperidin-4-yl) acetonitrile] | > 100 nM | > 100 nM
O=c1[nH]ncc2nc(N3CCCCCC3)nc(Nc3ccc(N4CCC(Cc5nn[nH]n5)CC4)nc3)c12 [Example 252, 4-((6-(4-((2H-tetrazol-5-yl)methyl)piperidin-1-yl)pyridin-3-yl)amino)-2-(azepan-1-yl)pyrimido[4,5-d]pyridazin-5(6H)-one] | < 50 nM | < 10 nM
O=C1CN(c2ccc(Nc3nc(N4CCCCCC4)nc4cn[nH]c(=O)c34)cc2)CCN1 [Example 165, 2-(azepan-1-yl)-4-((4-(3-oxopiperazin-1-yl)phenyl)amino)pyrimido[4,5-d]pyridazin-5(6H)-one] | < 100 nM | < 10 nM
CN1CCN(c2ccc(Nc3nc(N4CCCCCC4)nc4cn[nH]c(=O)c34)cn2)CC1 [Example 242, 2-(azepan-1-yl)-4-((6-(4-methylpiperazin-1-yl)pyridin-3-yl)amino)pyrimido[4,5-d]pyridazin-5(6H)-one] | < 50 nM | < 50 nM
O=c1[nH]ncc2nc(N3CCCCCC3)nc(Nc3ccc(OCCN4CCC(CO)CC4)cc3)c12 [Example 203, 2-(azepan-1-yl)-4-((4-(2-(4-(hydroxymethyl)piperidin-1-yl)ethoxy)phenyl)amino)pyrimido[4,5-d]pyridazin-5(6H)-one] | < 50 nM | < 10 nM
NCCOc1ccc(Nc2nc(N3CCCCCC3)nc3cn[nH]c(=O)c23)cc1 [Example 199, 4-((4-(2-aminoethoxy)phenyl)amino)-2-(azepan-1-yl)pyrimido[4,5-d]pyridazin-5(6H)-one] | < 10 nM | < 10 nM
CN1CCN(C(=O)COc2ccc(Nc3nc(N4CCC(CC#N)CC4)nc4cn[nH]c(=O)c34)cc2)CC1 [Example 271, 2-(1-(4-((4-(2-(4-methylpiperazin-1-yl)-2-oxoethoxy)phenyl)amino)-5-oxo-5,6-dihydropyrimido[4,5-d]pyridazin-2-yl)piperidin-4-yl)acetonitrile] | < 10 nM | < 50 nM
O=C(O)C1CC12CCN(c1ccc(Nc3nc(N4CCCNCC4)nc4cn[nH]c(=O)c34)cc1)CC2 (stereo not shown) [Example 72, 6-(4-((2-(1,4-diazepan-1-yl)-5-oxo-5,6-dihydropyrimido[4,5-d]pyridazin-4-yl)amino)phenyl)-6-azaspiro[2.5]octane-1-carboxylic acid hydrochloride] | < 50 nM | < 100 nM
O=C(O)CC1CCN(CCCOc2ccc(Nc3nc(N4CCCCCC4)nc4cn[nH]c(=O)c34)cc2)CC1 [Example 126, 2-(1-(3-(4-((2-(azepan-1-yl)-5-oxo-5,6-dihydropyrimido[4,5-d]pyridazin-4-yl)amino)phenoxy)propyl)piperidin-4-yl) acetic acid] | < 100 nM | < 50 nM
CC(C)(O)C(=O)N1CCN(CCOc2ccc(Nc3nc(N4CCCCCC4)nc4cn[nH]c(=O)c34)cc2)CC1 [Example 115, 2-(azepan-1-yl)-4-((4-(2-(4-(2-hydroxy-2-methylpropanoyl)piperazin-1-yl)ethoxy)phenyl)amino)pyrimido[4,5-d]pyridazin-5(6H)-one] | < 50 nM | < 50 nM
N#CCC1CCN(c2nc(Nc3ccc(N4CCC5(CC4)CC5C(=O)O)nc3)c3c(=O)[nH]ncc3n2)CC1 (stereo not shown) [Example 148, 6-(5-((2-(4-(cyanomethyl)piperidin-1-yl)-5-oxo-5,6-dihydropyrimido[4,5-d]pyridazin-4-yl)amino)pyridin-2-yl)-6-azaspiro[2.5]octane-1-carboxylic acid] | < 50 nM | < 50 nM
